Results: patent US20170173002A1, “Compositions and Methods for Treating an Infection” (CMPD LICENSING, LLC, priority 2015, published 2017)

Assays:
Trichophyton rubrum = assay: Expected efficacy of antifungal agents; conditions: expected efficacy against Trichophyton rubrum
Coccidioides immitis = conditions: expected efficacy against Coccidioides immitis
Aspergillus fumigatus = assay: Expected efficacy of antifungal agents; conditions: expected efficacy against Aspergillus fumigatus
Candida species = assay: Expected efficacy of antifungal agents; conditions: expected efficacy against Candida species
Blastomyces dermatitidis = assay: Expected efficacy of antifungal agents; conditions: expected efficacy against Blastomyces dermatitidis
Cryptococcus neoformans = assay: Expected efficacy of antifungal agents; conditions: expected efficacy against Cryptococcus neoformans
[1] = tested on: Paracoccidioides brasiliensis; assay: Expected efficacy of antifungal agents; conditions: expected efficacy against Paracoccidioides brasiliensis
Aspergillus flavus = assay: Expected efficacy of antifungal agents; conditions: expected efficacy against Aspergillus flavus
Histoplasma duboisii = conditions: expected efficacy against Histoplasma duboisii
Sporothrix schenckii = assay: Expected efficacy of antifungal agents; conditions: expected efficacy against Sporothrix schenckii
[2] = tested on: Trichophyton mentagrophytes; assay: Expected efficacy of antifungal agents; conditions: expected efficacy against Trichophyton mentagrophytes

Measured: Efficacy

CCC(C)n1ncn(-c2ccc(N3CCN(c4ccc(OC[C@H]5CO[C@](Cn6cncn6)(c6ccc(Cl)cc6Cl)O5)cc4)CC3)cc2)c1=O (mixture of isomers) [Itraconazole]
yes: all assays above
